Source: patent US8258176B2, “Dithiolopyrrolone compounds, the preparation and the use thereof” (Shanghai Institute of Pharmaceutical Industry, priority 2007, dated 2012)

Tested on: peripheral blood leukocytes of normal mice
Assay: Effects on peripheral blood leukocytes of normal mice (peripheral blood routine test)
Type: in vivo
Details: G-CSF 22.5 ug/kg sc once a day
From the text: Animal hematology analyzer, model: HEMAVET950 • 2. Method
The mice were divided into blank control group, positive control group and the dithiolopyrrolone series of compounds group, there are 10 mice in each group.

[1] = day 0 (before administration), compounds 20 mg/kg ig once a day
[2] = day 3, compounds 20 mg/kg ig once a day
[3] = day 5, compounds 20 mg/kg ig once a day

Compound | NE % (percentage of neutrophils in the total number of white blood cells) [1] | WBC count [1] | NE % (percentage of neutrophils in the total number of white blood cells) [2] | WBC count [2] | NE % (percentage of neutrophils in the total number of white blood cells) [3] | WBC count [3]
COc1ccc(-n2c3cssc-3c(NC(=O)OCC(C)C)c2=O)c(OC)c1 [compound 002] | 20.11% | 8.12e+09 L⁻¹ | 52.13% | 1.189e+10 L⁻¹ | 68.69% | 1.678e+10 L⁻¹
COc1ccc(-n2c3cssc-3c(NC(=O)OCc3ccccc3)c2=O)c(OC)c1 [compound 003] | 32.51% | 7.84e+09 L⁻¹ | 54.34% | 1.456e+10 L⁻¹ | 68.30% | 1.744e+10 L⁻¹
COC(=O)Nc1c2sscc-2n(-c2ccc(OC)cc2OC)c1=O [compound 005] | 26.46% | 8.08e+09 L⁻¹ | 35.55% | 8.76e+09 L⁻¹ | 46.65% | 8.64e+09 L⁻¹
COc1ccc(-n2c3cssc-3c(NC(=O)OC(C)C)c2=O)c(OC)c1 [compound 007] | 23.31% | 8.11e+09 L⁻¹ | 48.67% | 1.188e+10 L⁻¹ | 52.02% | 1.222e+10 L⁻¹
C=CCOC(=O)Nc1c2sscc-2n(-c2ccc(OC)cc2OC)c1=O [compound 008] | 31.56% | 8.88e+09 L⁻¹ | 60.03% | 1.779e+10 L⁻¹ | 65.55% | 1.876e+10 L⁻¹
CCCOC(=O)Nc1c2sscc-2n(-c2ccc(OC)cc2OC)c1=O [compound 009] | 23.62% | 9.01e+09 L⁻¹ | 27.46% | 1.39e+10 L⁻¹ | 47.78% | 1.421e+10 L⁻¹
COc1ccc(OC(=O)Nc2c3sscc-3n(-c3ccc(OC)cc3OC)c2=O)cc1 [compound 010] | 20.86% | 8.87e+09 L⁻¹ | 24.34% | 1.018e+10 L⁻¹ | 32.34% | 1.023e+10 L⁻¹
CCCCCOC(=O)Nc1c2sscc-2n(-c2ccc(OC)cc2OC)c1=O [compound 011] | 27.68% | 8.76e+09 L⁻¹ | 46.65% | 1.146e+10 L⁻¹ | 51.87% | 1.188e+10 L⁻¹
COc1ccc(-n2c3cssc-3c(NC(=O)OCC3CCCO3)c2=O)c(OC)c1 (stereo not drawn) [compound 012] | 34.02% | 9.03e+09 L⁻¹ | 38.98% | 1.146e+10 L⁻¹ | 49.07% | 1.201e+10 L⁻¹
CCCCOC(=O)Nc1c2sscc-2n(-c2ccc(OC)cc2OC)c1=O [compound 013] | 25.6% | 6.36e+09 L⁻¹ | 48.76% | 1.269e+10 L⁻¹ | 52.84% | 1.329e+10 L⁻¹
COc1ccc(-n2c3cssc-3c(NC(=O)OC3CCCC3)c2=O)c(OC)c1 [compound 014] | 20.81% | 6.78e+09 L⁻¹ | 23.39% | 1.156e+10 L⁻¹ | 40.40% | 1.201e+10 L⁻¹
CCCCCCCOC(=O)Nc1c2sscc-2n(-c2ccc(OC)cc2OC)c1=O [compound 015] | 20.76% | 7.46e+09 L⁻¹ | 25.65% | 1.156e+10 L⁻¹ | 38.87% | 1.334e+10 L⁻¹
COc1ccc(-n2c3cssc-3c(NC(=O)OCCCl)c2=O)c(OC)c1 [compound 016] | 18.79% | 7.34e+09 L⁻¹ | 40.47% | 1.047e+10 L⁻¹ | 45.76% | 1.156e+10 L⁻¹
COc1ccc(-n2c3cssc-3c(NC(=O)Oc3ccc(Cl)cc3)c2=O)c(OC)c1 [compound 017] | 23.24% | 6.36e+09 L⁻¹ | 28.88% | 8.67e+09 L⁻¹ | 36.90% | 8.88e+09 L⁻¹
COc1ccc(-n2c3cssc-3c(NC(=O)Oc3ccc(C)cc3)c2=O)c(OC)c1 [compound 018] | 21.74% | 6.15e+09 L⁻¹ | 23.38% | 8.59e+09 L⁻¹ | 26.04% | 9.03e+09 L⁻¹
COc1ccc(-n2c3cssc-3c(NC(=O)OCc3ccco3)c2=O)c(OC)c1 [compound 019] | 24.36% | 6.88e+09 L⁻¹ | 28.89% | 9.35e+09 L⁻¹ | 29.84% | 1.087e+10 L⁻¹
COc1ccc(-n2c3cssc-3c(NC(=O)OC(C)c3ccccc3)c2=O)c(OC)c1 (stereo not drawn) [compound 020] | 30.03% | 5.09e+09 L⁻¹ | 38.66% | 9.61e+09 L⁻¹ | 42.49% | 1.122e+10 L⁻¹
COc1ccc(-n2c3cssc-3c(NC(=O)OCc3cccs3)c2=O)c(OC)c1 [compound 021] | 29.78% | 5.22e+09 L⁻¹ | 36.52% | 9.93e+09 L⁻¹ | 49.65% | 1.122e+10 L⁻¹
COc1ccc(-n2c3cssc-3c(NC(=O)Oc3cccnc3)c2=O)c(OC)c1 [compound 022] | 31.23% | 6.86e+09 L⁻¹ | 38.98% | 1.003e+10 L⁻¹ | 47.74% | 1.211e+10 L⁻¹
COc1ccc(-n2c3cssc-3c(NC(=O)N3CCOCC3)c2=O)c(OC)c1 [compound 023] | 26.86% | 7.86e+09 L⁻¹ | 56.66% | 2.234e+10 L⁻¹ | 77.31% | 2.998e+10 L⁻¹
COc1ccc(-n2c3cssc-3c(NC(=O)NCc3ccccc3)c2=O)c(OC)c1 [compound 024] | 24.67% | 7.95e+09 L⁻¹ | 33.98% | 8.76e+09 L⁻¹ | 42.02% | 9.71e+09 L⁻¹
COc1ccc(-n2c3cssc-3c(NC(=O)Nc3ccccc3)c2=O)c(OC)c1 [compound 026] | 28.98% | 7.84e+09 L⁻¹ | 30.38% | 8.76e+09 L⁻¹ | 38.63% | 9.71e+09 L⁻¹
CCSC(=O)Nc1c2sscc-2n(-c2ccc(OC)cc2OC)c1=O [compound 027] | 24.45% | 8.76e+09 L⁻¹ | 45.46% | 1.122e+10 L⁻¹ | 48.37% | 1.254e+10 L⁻¹
